Several values for one entry are separate records, joined by “and”; a condition that tells them apart may be missing. Identical values can stand only once. Toxic doses and inconclusive results are not listed. Rule as the data show it: active = T/C of 150% or more; inactive = T/C below 125%.
Tested on: L1210 leukemia ip in BDF1 mice, survival T/C
Assay: NCI In Vivo Anticancer Drug Screen. Data for tumor model L1210 Leukemia (intraperitoneal) in B6D2F1 (BDF1) mice
Conditions: endpoint: mean survival time, higher = longer survival
Outline: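 Read-out is survival time, reported as the treated-group measurement over the vehicle-control measurement.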

[1] = dose: 100.0 mg/kg/injection, schedule: Q01DX009 (ip), vehicle: saline sonified
[2] = dose: 100.0 mg/kg/injection, schedule: Q04DX003 (ip), vehicle: Klucel (hydroxypropylcellulose) (HPC)
[3] = dose: 200.0 mg/kg/injection, schedule: Q04DX003 (ip), vehicle: Klucel (hydroxypropylcellulose) (HPC)
[4] = dose: 400.0 mg/kg/injection, schedule: Q04DX003 (ip), vehicle: Klucel (hydroxypropylcellulose) (HPC)
[5] = dose: 100.0 mg/kg/injection, schedule: Q04DX002 (ip), vehicle: saline with Tween-80
[6] = dose: 50.0 mg/kg/injection, schedule: Q01DX009 (ip), vehicle: saline
[7] = dose: 50.0 mg/kg/injection, schedule: Q04DX003 (ip), vehicle: saline
[8] = dose: 100.0 mg/kg/injection, schedule: Q01DX009 (ip), vehicle: saline
[9] = dose: 100.0 mg/kg/injection, schedule: Q04DX003 (ip), vehicle: saline
[10] = dose: 200.0 mg/kg/injection, schedule: Q01DX009 (ip), vehicle: saline
[11] = dose: 200.0 mg/kg/injection, schedule: Q04DX003 (ip), vehicle: saline
[12] = dose: 100.0 mg/kg/injection, schedule: Q04DX003 (ip), vehicle: saline with Tween-80
[13] = dose: 200.0 mg/kg/injection, schedule: Q04DX003 (ip), vehicle: saline with Tween-80
[14] = dose: 400.0 mg/kg/injection, schedule: Q04DX003 (ip), vehicle: saline with Tween-80
[15] = dose: 50.0 mg/kg/injection, schedule: Q01DX001 (ip), vehicle: saline
[16] = dose: 100.0 mg/kg/injection, schedule: Q01DX001 (ip), vehicle: saline
[17] = dose: 200.0 mg/kg/injection, schedule: Q01DX001 (ip), vehicle: saline
[18] = dose: 400.0 mg/kg/injection, schedule: Q01DX001 (ip), vehicle: saline
[19] = dose: 400.0 mg/kg/injection, schedule: Q01DX009 (ip), vehicle: saline
[20] = dose: 100.0 mg/kg/injection, schedule: Q01DX009 (ip), vehicle: saline with Tween-80
[21] = dose: 200.0 mg/kg/injection, schedule: Q01DX009 (ip), vehicle: saline with Tween-80
[22] = dose: 25.0 mg/kg/injection, schedule: Q01DX009 (ip), vehicle: saline sonified

Measured: T/C

CCCCNS(=O)(=O)c1ccc(N)cc1
inactive: [1] 102 % of control | [2] 98 % of control | dose: 200.0 mg/kg/injection, schedule: Q01DX009 (ip), vehicle: saline sonified 102 % of control | [3] 109 % of control | dose: 400.0 mg/kg/injection, schedule: Q01DX009 (ip), vehicle: saline sonified 98 % of control | [4] 117 % of control

CCOc1ccc(N=Cc2cc(Br)ccc2O)cc1
inactive: [5] 96 % of control | dose: 200.0 mg/kg/injection, schedule: Q04DX002 (ip), vehicle: saline with Tween-80 100 % of control | dose: 400.0 mg/kg/injection, schedule: Q04DX002 (ip), vehicle: saline with Tween-80 100 % of control

CC(C)=NOC(C)C(=O)O (stereo not given)
inactive: [6] 94 % of control and 101 % of control | [7] 95 % of control | dose: 75.0 mg/kg/injection, schedule: Q01DX001 (ip), vehicle: saline 101 % of control and 98 % of control | [8] 91 % of control and 97 % of control | [9] 100 % of control and 98 % of control | dose: 150.0 mg/kg/injection, schedule: Q01DX001 (ip), vehicle: saline 103 % of control and 106 % of control | [10] 92 % of control and 103 % of control | [11] 97 % of control and 95 % of control | dose: 300.0 mg/kg/injection, schedule: Q01DX001 (ip), vehicle: saline 114 % of control

O=CNNC(=O)c1ccccn1
inactive: dose: 50.0 mg/kg/injection, schedule: Q01DX001 (ip), vehicle: water 108 % of control | [6] 98 % of control | [7] 100 % of control | dose: 100.0 mg/kg/injection, schedule: Q01DX001 (ip), vehicle: water 108 % of control | [8] 101 % of control | [9] 96 % of control | [10] 114 % of control | [11] 109 % of control

CC12CCC(=O)CC1CCC1C2CCC2(C)C(C(=O)O)CCC12 (stereo not given)
inactive: dose: 25.0 mg/kg/injection, schedule: Q04DX002 (ip), vehicle: saline with Tween-80 99 % of control | dose: 50.0 mg/kg/injection, schedule: Q04DX002 (ip), vehicle: saline with Tween-80 96 % of control | [5] 108 % of control

CC(=O)C1=C(c2ccccc2)NC(=O)NC1c1ccco1 (stereo not given)
inactive: [12] 94 % of control | [13] 90 % of control | [14] 92 % of control

CC1COC(Nc2cccc3c2CCCC3)=N1 (stereo not given)
inactive: dose: 12.5 mg/kg/injection, schedule: Q01DX009 (ip), vehicle: saline with Tween-80 103 % of control | dose: 25.0 mg/kg/injection, schedule: Q01DX009 (ip), vehicle: saline with Tween-80 92 % of control | dose: 50.0 mg/kg/injection, schedule: Q01DX009 (ip), vehicle: saline with Tween-80 90 % of control

Cc1cc[n+]2n1CC(O)C2 (stereo not given)
inactive: [15] 102 % of control | [16] 100 % of control | [17] 96 % of control | [18] 102 % of control

C(=N\Nc1nnc(N/N=C/C2CCCCC2)c2ccccc12)/C1CCCCC1
inactive: [15] 100 % of control

CN(CCC#N)C1=CCCCCC1
inactive: [16] 101 % of control | [17] 97 % of control

c1ccc2[nH]c(-c3ccc(N=Nc4ccc(-c5nc6ccccc6[nH]5)cc4)cc3)nc2c1
inactive: dose: 15.0 mg/kg/injection, schedule: Q01DX Z (ip), vehicle: other 100 % of control | dose: 30.0 mg/kg/injection, schedule: Q01DX Z (ip), vehicle: other 97 % of control | dose: 60.0 mg/kg/injection, schedule: Q01DX Z (ip), vehicle: other 105 % of control | dose: 120.0 mg/kg/injection, schedule: Q01DX Z (ip), vehicle: other 96 % of control | dose: 180.0 mg/kg/injection, schedule: Q01DX Z (ip), vehicle: carboxymethylcellulose (CMC) 108 % of control | dose: 270.0 mg/kg/injection, schedule: Q01DX Z (ip), vehicle: carboxymethylcellulose (CMC) 101 % of control

Cc1cc(S(=O)(=O)F)ccc1O
inactive: dose: 100.0 mg/kg/injection, schedule: Q01DX009 (ip), vehicle: Klucel (hydroxypropylcellulose) (HPC) 106 % of control | dose: 200.0 mg/kg/injection, schedule: Q01DX009 (ip), vehicle: Klucel (hydroxypropylcellulose) (HPC) 103 % of control | dose: 400.0 mg/kg/injection, schedule: Q01DX009 (ip), vehicle: Klucel (hydroxypropylcellulose) (HPC) 98 % of control

Cc1cc(C(C)(C)C)ccc1S(=O)(=O)/C=C/c1ccccc1
inactive: dose: 100.0 mg/kg/injection, schedule: Q01DX001 (ip), vehicle: acetone 95 % of control | [8] 93 % of control | dose: 200.0 mg/kg/injection, schedule: Q01DX001 (ip), vehicle: acetone 97 % of control | [10] 88 % of control | dose: 400.0 mg/kg/injection, schedule: Q01DX001 (ip), vehicle: acetone 92 % of control | [19] 88 % of control

C[Si](C)(C#CC1(O)CCCCC1)CCl
inactive: [2] 107 % of control | [3] 106 % of control | [4] 103 % of control

C=C(C(=O)c1ccccc1)C(O)c1ccccc1 (stereo not given)
inactive: [20] 104 % of control | [12] 100 % of control | [21] 90 % of control | [13] 100 % of control | [14] 97 % of control

O=C(O)c1cc(Br)c2ccccc2c1O
inactive: [22] 103 % of control | dose: 50.0 mg/kg/injection, schedule: Q01DX009 (ip), vehicle: saline sonified 108 % of control | [1] 100 % of control | [2] 104 % of control

COCCO
inactive: [16] 105 % of control | [17] 103 % of control | [18] 105 % of control

CCCCSC(N)=O
inactive: [20] 103 % of control | dose: 100.0 mg/kg/injection, schedule: Q04DX002 (ip), vehicle: Klucel (hydroxypropylcellulose) (HPC) 94 % of control | [21] 105 % of control | dose: 200.0 mg/kg/injection, schedule: Q04DX002 (ip), vehicle: Klucel (hydroxypropylcellulose) (HPC) 97 % of control | dose: 400.0 mg/kg/injection, schedule: Q01DX009 (ip), vehicle: saline with Tween-80 119 % of control | dose: 400.0 mg/kg/injection, schedule: Q04DX002 (ip), vehicle: Klucel (hydroxypropylcellulose) (HPC) 90 % of control

O=CC(Cl)Cl
inactive: [8] 92 % of control | [10] 110 % of control | [19] 108 % of control

CCCCOB(CI)OCCCC
inactive: dose: 6.25 mg/kg/injection, schedule: Q01DX009 (ip), vehicle: saline sonified 96 % of control | dose: 6.25 mg/kg/injection, schedule: Q04DX003 (ip), vehicle: saline sonified 94 % of control | dose: 12.5 mg/kg/injection, schedule: Q01DX009 (ip), vehicle: saline sonified 100 % of control | dose: 12.5 mg/kg/injection, schedule: Q04DX003 (ip), vehicle: saline sonified 92 % of control | [22] 104 % of control | dose: 25.0 mg/kg/injection, schedule: Q04DX003 (ip), vehicle: saline sonified 105 % of control

COC(=O)c1cc(C)c(N)cc1C
inactive: [16] 96 % of control | [17] 104 % of control | [18] 102 % of control

Reference: PubChem BioAssay AID248 (DTP/NCI, 2004)
